Data set [1] is described as follows: Pharmacokinetics after intravenous and oral treatment, plasma LC-MS/MS. The data set is classed as in vivo, male Han Wistar rats. As to conditions: rat; for AUC(0-t) / AUC(0-inf) / half-life / clearance / Vd / Cmax / Tmax / bioavailability: male, Han Wistar, plasma; for AUC(0-inf): extrapolated to infinity; for half-life / clearance / Vd: extrapolated, indicative only; for clearance: read-out: CLp* (converted); for Vd: read-out: Vss*. On the procedure:
The pharmacokinetics of compounds E7, E17 and E18, were studied in male Han Wistar rats. The rats were treated intravenously and orally (n=3 for each dose route) with compounds formulated as solutions. The rats were fitted with a jugular cannula for serial sampling. A full profile was acquired from each rat. Plasma extracts were quantitatively analyzed using a specific and sensitive LC-MS/MS bioanalytical method. Inter-individual variations between the three rats in each group were limited (CV for pharmacokinetic parameters was below 50%). […] A range of clearance values were obtained for the different structure, ranging from low to moderate values (from 43 to 250 ml/h). After oral administration, absorption was quite fast with a clear maximum concentration reached by the first sampling time-point of 15 minutes for all compounds.

Data set [2] concerns the target T1, hEP4 receptors (Homo sapiens, UniProt P35408).
T1 construct: membrane fraction used
Description: [3H]-Prostaglandin E2 membrane binding assay. As to conditions: read-out: Binding pKi (converted). How it is done:
(§1) The cDNA clone of human EP4 receptor (NM_000958.2) was obtained from InvitrogenTM: Ultimate™ ORF Clone Collection - Clone ID IOH46525. The coding sequence was subcloned in expression vector pcDNATM6.2/V5-DEST by Gateway technology (InvitrogenTM). Human embryonic kidney cells (HEK-293) were stably transfected with expression vector for human EP4 receptor in according to the method described in FuGENE®6 Transfection Reagent's manual (Roche Applied Science®).
(§2) The EP4 transfected cells were grown in Dulbecco's modified Eagle's medium containing 10% fetal bovine serum and 10 µg/ml Blasticidin S HCl (selection medium) at 37°C in a humidified atmosphere of 5% CO2 in air. For the membrane preparation, cells in flask were harvested by hypotonical/mechanical lysis with chilled (4°C) TE buffer (5mM TRIS, 5mM ethylenediamine tetra-acetic acid (EDTA), pH 7.4). Cells were detached and lysed with 10ml of hypotonic lysis buffer and by scraping. The cell lysate was vortexed for 30 sec and centrifuged at 40000x g at 4°C for 22min.
The membrane pellet was resuspended in the same buffer (5mM TRIS, 5mM ethylenediamine tetra-acetic acid (EDTA), pH 7.4), and protein concentration was determined by Bradford method (Bio-Bad® assay). This membrane preparation was stored at -80°C freezer until use for binding assay. ([^3H]-PGE2) membranes binding assays toward hEP4 receptors (human EP4/HEK293 transfectant, see above) and hEP2 receptors (human EP2/HEK293 transfectant, purchased from PerkinElmer Inc) were performed in 10 mM MES-KOH buffer pH6, containing 10 mM MgCl2 and 1 mM CaCl2 for EP4 binding assay or 50 mM Tris-Cl, BSA 0.5% for EP2 binding assay (according to supplier indication) . Ten microgram of protein from membrane fractions were incubated in a total volume of 0.1ml (EP4) or 0.2ml (EP2) with 1nM (EP4) or 3nM (EP2) [^3H]-PGE2 (PerkinElmer Inc, 171Ci/mmol). In both assays to determine the total binding or non specific binding, 1% DMSO or 1µM prostaglandin E2 (EP4) or 100 µM (EP2) were added to reaction mixtures, respectively. Incubation was conducted in a polypropylene 96 multiwell for 90 min (EP4) or 60 min (EP2) at room temperature prior to separation of the bound and free radioligand by vacuum manifold rapid filtration on glass fiber filters (Unifilter GFB96, PerkinElmer Inc) pre-soaked in 0.3% polyethyleneimine. Filters were washed with ice cold buffer pH 7.4 (50mM HEPES, NaCl 500mM, BSA 0.1% for EP4 binding assay or 50mM Tris-Cl for EP2 binding assays) and the residual [^3H]-PGE2 binding determined by solid scintillation counter (TopCount , PerkinElmer Inc).
The affinity (Ki) of each compound was calculated according to the Cheng-Prousoff equation: Ki = IC50/(1+([C]/Kd)). Results were expressed as pKi (- log10 Ki (M)

Data set [3] addresses T1, hEP4 receptors. Description: cAMP assay (AlphaScreen) on human EP4 membrane of transfected cells, antagonism of PGE2. It counts as biochemical. The conditions noted are these: HEK293 cell membrane stimulated with PGE2 3nM; read-out: functional IC50. On the procedure:
as §1, §2
The assay is based on the competition between endogenous cAMP and exogenously added biotinylated cAMP. The capture of cAMP is achieved by using a specific antibody conjugated to Donor beads. Cell membranes prepared as described above, were resuspended in 1 ml stimulation buffer (HBSS 1X + BSA 0.1% + IBMX 0.5mM + HEPES 5mM + MgCl2 10mM + GTP 1 nM + GDP 10µM + ATP 100µM - pH 7.4). Cell membranes were dispensed into white 384-well microplates at final concentration of 1µg/well and used for the determination of cAMP with the alphascreen cAMP functional assay (EnVision - PerkinElmer). Cell membrane/anti-cAMP Acceptor beads mix (5 µl) and a mixture of analysed compounds (dissolved in 100% DMSO to a final maximal concentration of 0.01% DMSO)/PGE2 (5 µl) were incubated at room temperature (22-23°C) for 30 min in the dark. The Biotinylated-cAMP and donor beads (15 µl) were dispensed into each well to start the competition reaction. After 1 h incubation RT (22-23°C) in the dark the plate was read using EnVision platform to determine the cAMP level (excitation: 680nm; emission:520,620nm). In each experiment:
cAMP standard curve (concentration range from 1x10-6 to 1x10-11 M in log intervals) with a negative control (no cAMP)
a positive control: forskolin 10µM
Antagonism studies were performed stimulating HEK293 cell membrane with PGE2 3nM. The AlphaScreen signal is plotted as a function of log concentration of cAMP and functional IC50 is determined. IC50 value is calculated by linear regression.

Read-outs that look alike come from different tables or passages of the source.

T1 sequence (P35408 whole entry): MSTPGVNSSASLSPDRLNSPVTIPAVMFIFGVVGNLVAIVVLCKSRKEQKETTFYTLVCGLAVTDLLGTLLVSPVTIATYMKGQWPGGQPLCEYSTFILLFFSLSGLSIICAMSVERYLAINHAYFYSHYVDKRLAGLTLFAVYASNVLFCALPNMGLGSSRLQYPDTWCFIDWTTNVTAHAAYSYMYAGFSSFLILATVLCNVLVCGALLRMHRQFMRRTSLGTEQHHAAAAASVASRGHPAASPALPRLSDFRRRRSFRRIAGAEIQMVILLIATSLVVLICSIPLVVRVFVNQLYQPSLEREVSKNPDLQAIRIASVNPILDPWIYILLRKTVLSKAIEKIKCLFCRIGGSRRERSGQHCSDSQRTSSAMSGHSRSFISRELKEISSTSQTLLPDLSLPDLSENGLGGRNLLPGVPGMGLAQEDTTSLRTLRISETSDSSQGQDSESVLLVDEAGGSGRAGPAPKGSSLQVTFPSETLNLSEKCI

Take `O=C(O)c1ccc(C2(NC(=O)C3CC4(CCN3Cc3ccc(C(F)(F)F)cc3)CC4)CC2)cc1` (single isomer, unassigned) [Example E7, 4-(1-(6-(4-(trifluoromethyl)benzyl)-6-azaspiro[2.5]octane-5-carboxamido)cyclopropyl)benzoic acid]: in data set [1] (iv, 5 mg/kg), the AUC(0-t) was 29200 ng·h/mL, the AUC(0-inf) was 31800 ng·h/mL, the half-life is 7.4 h and the clearance was 0.717 mL/min. In addition, in data set [1] (iv, 5 mg/kg), the Vd was 0.395 L and the “Tlast” value is 24 h. In addition, in data set [1] (po, 5 mg/kg), the AUC(0-t) was 22900 ng·h/mL, the Cmax was 5330 ng/mL, the Tmax is 0.5 h and the AUC(0-inf) is 24900 ng·h/mL. In data set [1] (po, 5 mg/kg), the half-life is 6.7 h and the “Tlast” value is 24 h. The bioavailability in data set [1] (po, 5 mg/kg, absolute oral bioavailability) is 78%. For the same molecule, the Ki in data set [2] is 31.6 nM. The IC50 in data set [3] stood at 22 nM.

`O=C(O)c1ccc(C2(NC(=O)C3CC(F)(F)CCN3Cc3ccc(C(F)(F)F)cc3)CC2)cc1` (single isomer, unassigned) [Example E18, 4-(1-(4,4-difluoro-1-(4-(trifluoromethyl)benzyl)piperidine-2-carboxamido)cyclopropyl)benzoic acid]: in data set [1] (iv, 1 mg/kg), the AUC(0-t) stood at 1260 ng·h/mL, the AUC(0-inf) was 1390 ng·h/mL, the half-life was 9.3 h and the clearance is 3.17 mL/min. Besides, in data set [1] (iv, 1 mg/kg), the Vd was 1.7 L and the “Tlast” value stood at 24 h. Moreover, in data set [1] (po, 1 mg/kg), the AUC(0-t) is 1170 ng·h/mL, the Cmax amounted to 556 ng/mL, the Tmax was found to be 0.5 h and the AUC(0-inf) was 1200 ng·h/mL. Further, in data set [1] (po, 1 mg/kg), the half-life is 5.1 h, the bioavailability is 93% and the “Tlast” value was determined as 24 h. Further, the Ki in data set [2] is 6.31 nM. In addition, in data set [3], the IC50 was 11 nM.

These data come from EP2729445B1, “CYCLIC AMINE DERIVATIVES AS EP4 RECEPTOR ANTAGONISTS” (Rottapharm Biotech S.r.l., priority 2011, dated 2013).
